# Results taken from ChEMBL document CHEMBL1132802, “Synthesis, chiral chromatographic separation, and biological activities of the enantiomers of 10,10-dimethylhuperzine A” (Bioorg Med Chem Lett, 2000).
# Experiments:
# [1] = Half life period was determined; format: ADME; settings: rat
# Acetylcholinesterase = target: T1, Acetylcholinesterase (Bos taurus, UniProt P23795); test: Binding affinity towards Acetylcholinesterase from fetal bovine serum
# T1 sequence (P23795 whole entry): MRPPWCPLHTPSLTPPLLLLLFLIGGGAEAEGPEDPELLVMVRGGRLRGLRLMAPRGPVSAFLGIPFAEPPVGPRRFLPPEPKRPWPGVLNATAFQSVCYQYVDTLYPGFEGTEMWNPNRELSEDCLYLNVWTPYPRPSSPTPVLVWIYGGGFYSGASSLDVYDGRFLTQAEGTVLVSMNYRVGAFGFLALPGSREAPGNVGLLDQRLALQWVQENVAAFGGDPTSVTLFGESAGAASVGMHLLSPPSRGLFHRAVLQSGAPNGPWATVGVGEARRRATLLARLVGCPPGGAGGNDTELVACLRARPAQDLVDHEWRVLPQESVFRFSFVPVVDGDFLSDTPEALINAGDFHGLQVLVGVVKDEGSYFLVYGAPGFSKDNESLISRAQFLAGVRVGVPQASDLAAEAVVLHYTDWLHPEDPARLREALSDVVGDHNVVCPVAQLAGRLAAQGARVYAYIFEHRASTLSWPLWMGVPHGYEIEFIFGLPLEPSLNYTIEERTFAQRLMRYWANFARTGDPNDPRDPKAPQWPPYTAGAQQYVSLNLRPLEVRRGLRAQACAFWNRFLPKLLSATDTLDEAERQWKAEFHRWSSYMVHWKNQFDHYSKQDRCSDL
# Rattus norvegicus = species: Rattus norvegicus; test: Effect of pretreatment on the survival of the rat embryonic forebrain neurons when exposed to glutamate; format: functional
Structure (SMILES),Ki (Acetylcholinesterase),Control (Rattus norvegicus),further results
C/C=C1\[C@H]2C=C(C)C[C@]1(N)c1ccc(=O)[nH]c1C2 [HUPERZINE A],–,–,half-life [1]: 35 min
C/C=C1\C2C=C(C)C[C@]1(N)c1ccc(O)nc1C2(C)C (stereo in doubt; form 1),30.9 nM,–,–
N[C@@H](CCC(=O)O)C(=O)O [GLUTAMIC ACID],–,43.7%,–
C/C=C1\C2C=C(C)C[C@]1(N)c1ccc(O)nc1C2(C)C (stereo in doubt; form 4),7.7 nM,–,–
C/C=C1\C2C=C(C)C[C@]1(N)c1ccc(O)nc1C2(C)C.NC(CCC(=O)O)C(=O)O (stereo in doubt; form 2),–,71.7%,–
C/C=C1\C2C=C(C)C[C@]1(N)c1ccc(O)nc1C2(C)C.NC(CCC(=O)O)C(=O)O (stereo in doubt; form 3),–,71.3%,–
